Assays:
Assay type in all cases: cell-based
[1] = target: T1, TRPML3 (Homo sapiens, UniProt Q8TDD5); experiment: Fluorescent TRPML3 assay (as for TRPML1)
T1 construct: expressed in transfected cells
T1 sequence (Q8TDD5 1-553): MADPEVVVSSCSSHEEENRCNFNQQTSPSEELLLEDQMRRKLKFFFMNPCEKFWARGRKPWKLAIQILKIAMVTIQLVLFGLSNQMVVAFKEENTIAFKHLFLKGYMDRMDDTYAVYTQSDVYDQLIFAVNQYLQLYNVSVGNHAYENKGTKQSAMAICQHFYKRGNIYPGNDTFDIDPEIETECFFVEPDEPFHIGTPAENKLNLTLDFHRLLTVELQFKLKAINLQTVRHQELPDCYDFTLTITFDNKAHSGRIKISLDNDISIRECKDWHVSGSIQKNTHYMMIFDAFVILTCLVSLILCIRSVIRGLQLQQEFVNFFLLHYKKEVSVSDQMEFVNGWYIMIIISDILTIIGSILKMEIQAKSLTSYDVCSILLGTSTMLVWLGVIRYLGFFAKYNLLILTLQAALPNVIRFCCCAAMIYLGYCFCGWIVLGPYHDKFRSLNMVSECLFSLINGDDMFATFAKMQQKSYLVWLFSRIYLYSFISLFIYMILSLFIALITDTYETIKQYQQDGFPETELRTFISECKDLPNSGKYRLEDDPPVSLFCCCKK
Method in brief: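 HEK-293 Trex cells with tet-inducible (0.5 ug/mL doxycycline, overnight) surface-targeted mutant channel, Fluo4-AM loaded, suspended in Ringer's with 10 mM calcium. Compounds tested 20 µM to 6 nM final, half-log steps, triplicate; fluorescence at ex 480/em 540 nm. EC50 by non-linear regression of percent activity versus plate controls.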

[2] = target: T2, TRPML2 (Homo sapiens, UniProt Q8IZK6); experiment: Fluorescent TRPML2 assay (as for TRPML1)
T2 construct: expressed in transfected cells
T2 sequence (Q8IZK6 1-566): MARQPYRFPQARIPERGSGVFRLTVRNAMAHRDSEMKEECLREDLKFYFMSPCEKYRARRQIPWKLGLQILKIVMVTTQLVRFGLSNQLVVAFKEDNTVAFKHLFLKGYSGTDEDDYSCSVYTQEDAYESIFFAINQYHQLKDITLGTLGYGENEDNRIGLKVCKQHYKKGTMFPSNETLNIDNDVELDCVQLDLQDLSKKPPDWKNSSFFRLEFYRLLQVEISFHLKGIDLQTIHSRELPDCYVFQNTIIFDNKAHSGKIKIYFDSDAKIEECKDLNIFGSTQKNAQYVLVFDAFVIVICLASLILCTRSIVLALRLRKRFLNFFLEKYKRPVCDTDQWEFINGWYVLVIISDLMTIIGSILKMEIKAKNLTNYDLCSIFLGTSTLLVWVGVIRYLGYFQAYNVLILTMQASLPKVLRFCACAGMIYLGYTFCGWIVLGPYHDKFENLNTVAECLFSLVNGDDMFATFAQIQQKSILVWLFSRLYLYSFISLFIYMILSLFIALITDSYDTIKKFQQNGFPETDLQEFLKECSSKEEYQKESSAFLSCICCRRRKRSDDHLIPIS
Experimental: HEK-293 Trex cells were stably transfected with a construct consisting of the human coding sequence for TRPML1 cloned into the tet-inducible plasmid pCDNA5 T/O. Mutations were introduced into the TRPML1 sequence to facilitate expression on the cell surface (Silvia Vergarajauregui, Rosa Puertollano Traffic. 2006 March; 7 (3): 337-353). Briefly, the cells are cultured in 150 mm round tissue culture dishes containing 20 mL of media. The day before the assay the cells are rinsed with DPBS —Ca—Mg and then treated briefly with Trypsin-EDTA. The Trypsin-EDTA is diluted with growth media, and cells are counted. 38×10^6 cells are re-plated into 150 mm round tissue culture dishes in media containing 0.5 ug/mL doxycycline to induce expression of hTRPML1.
The day of the experiment cells are lifted from the plates as above and collected by centrifugation. The cells are then suspended in dye loading buffer consisting of Ringer's solution supplemented with 0.1% Pluronic Acid and 1 micromolar Fluo4-AM dye. Cells are loaded for ˜60 minutes in the dark with occasional mixing. The cells are collected by centrifugation, the loading media aspirated, and the cells resuspended in 25 mL Ringer's solution and incubated ˜60 minutes in the dark. The cells are again collected by centrifugation, rinsed in Ringer's Solution and resuspended to 0.2×10^6 cells/mL in modified Ringer's solution containing 10 mM calcium.
Compounds are dissolved to a concentration of 10 millimolar with DMSO. Compound plates are created by dispensing compounds into 384 well black wall clear bottom plates (Greiner 781091). Positive and negative controls are included on each plate. Typically, different amounts of each compound are tested ranging from 100 nanoMoles (20 micromolar final concentration) decreasing in half-log steps to 31 picoMoles (6 nanomolar final concentration). Each concentration is typically tested in triplicate.
50 microliters of dye-loaded cells are dispensed into each well of the compound assay plate created above. The fluorescence in each well is then determined with an excitation wavelength of 480 nm and an emission wavelength of 540 nm using either a Molecular Devices SpectraMax multimode plate reader or a Hamamatsu FDSS/uCell plate imager.
The resulting fluorescence for each well is exported as an ascii file and loaded into our LIMS for analysis. The percent activity of each compound at each concentration is determined by comparison to the positive and negative control wells included in each plate.
Assays for TRPML2 and TRPML3 were performed as above for TRPML1, by substituting the appropriate TRPML2 or TRPML3 subtype for the TRPML1.
EC50 values were calculated using a non-linear regression of Prism. In the table, “A” indicates an EC50 of less than 100 nM, “B” indicates an EC50 range from 100 nM to 500 nM; “C” indicates an EC50 range from 500 nM to 2 μM; and “D” indicates an EC50 greater than 2 μM.

[3] = target: human TRPML1 (Homo sapiens, UniProt Q9GZU1); experiment: Fluorescent TRPML1 assay (Fluo4-AM calcium fluorescence, HEK-293 Trex cells)
Method in brief: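 Tet-inducible HEK-293 Trex cells stably expressing surface-targeted mutant human TRPML1, induced with 0.5 ug/mL doxycycline overnight, loaded with Fluo4-AM and suspended in Ringer's with 10 mM calcium. Compounds tested from 20 μM to 6 nM final, half-log steps, in triplicate; fluorescence (ex 480/em 540) normalised to plate controls, EC50 by non-linear regression.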

human TRPML1, sequence (Q9GZU1 whole entry L15A/L16A/L577A/L578A, form open): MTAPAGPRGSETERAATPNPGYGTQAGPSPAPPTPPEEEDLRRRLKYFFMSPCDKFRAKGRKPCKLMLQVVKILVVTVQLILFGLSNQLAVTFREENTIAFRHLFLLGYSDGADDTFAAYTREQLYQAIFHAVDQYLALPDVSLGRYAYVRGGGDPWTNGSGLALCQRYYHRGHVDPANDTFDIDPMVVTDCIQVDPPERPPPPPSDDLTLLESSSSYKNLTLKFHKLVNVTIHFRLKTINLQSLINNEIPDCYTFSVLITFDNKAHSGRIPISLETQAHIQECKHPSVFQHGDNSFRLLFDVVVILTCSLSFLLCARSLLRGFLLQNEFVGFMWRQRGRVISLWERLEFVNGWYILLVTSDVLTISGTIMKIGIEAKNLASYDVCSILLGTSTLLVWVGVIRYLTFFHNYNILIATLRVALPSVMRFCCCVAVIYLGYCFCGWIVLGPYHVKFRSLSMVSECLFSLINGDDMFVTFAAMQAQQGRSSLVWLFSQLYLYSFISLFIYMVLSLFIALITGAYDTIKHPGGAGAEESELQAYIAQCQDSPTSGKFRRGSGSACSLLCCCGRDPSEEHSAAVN

C[C@@H]1CN(c2ncnc3c2c(-c2ccccc2F)cn3-c2cc(C#N)ccn2)CCN1C(=O)C(C)(C)F [Compound 126, (R)-2-(4-(4-(2-fluoro-2-methylpropanoyl)-3-methylpiperazin-1-yl)-5-(2-fluorophenyl)-7H-pyrrolo[2,3-d]pyrimidin-7-yl)isonicotinonitrile]
EC50 ([1]; Table 3, compounds 101-177): < 100 nM
EC50 ([2]; Table 3, compounds 101-177): 100 to 500 nM
EC50 ([3]; Table 3, compounds 101-177): < 100 nM

[2H]C([2H])([2H])[C@@H]1CN(c2ncnc3c2c(-c2ccccc2F)cn3-c2cc(C#N)ccn2)[C@@H](C)CN1C(=O)C(C)C (single isomer, unassigned) [Compound 281]
EC50 ([1]; Table 3, compounds 201-283): 100 to 500 nM
EC50 ([2]; Table 3, compounds 201-283): 500 to 2000 nM

[2H]C([2H])([2H])C([2H])(C(=O)N1C[C@H](C)N(c2ncnc3c2c(-c2ccccc2F)cn3-c2cc(C#N)ccn2)C[C@H]1C)C([2H])([2H])[2H] (single isomer, unassigned) [Compound 233]
EC50 ([1]; Table 3, compounds 201-283): < 100 nM
EC50 ([2]; Table 3, compounds 201-283): < 100 nM

CC(C)C(=O)N1CCN(c2ncnc3c2c(-c2ccccc2F)cn3-c2cc(C#N)ncn2)[C@@H](C)C1 [Compound 152, (S)-6-(5-(2-fluorophenyl)-4-(4-isobutyryl-2-methylpiperazin-1-yl)-7H-pyrrolo[2,3-d]pyrimidin-7-yl)pyrimidine-4-carbonitrile]
EC50 ([1]; Table 3, compounds 101-177): < 100 nM
EC50 ([3]; Table 3, compounds 101-177): 100 to 500 nM

Cc1nccnc1-c1cn(-c2cccc(Cl)c2)c2ncnc(N3C[C@@H](C)N(C(=O)CC(C)C)C[C@@H]3C)c12 [Compound 176, 1-((2R,5S)-4-(7-(3-chlorophenyl)-5-(3-methylpyrazin-2-yl)-7H-pyrrolo[2,3-d]pyrimidin-4-yl)-2,5-dimethylpiperazin-1-yl)-3-methylbutan-1-one]
EC50 ([1]; Table 3, compounds 101-177): > 2000 nM
EC50 ([3]; Table 3, compounds 101-177): 500 to 2000 nM

CC(C)C(=O)N1CCN(c2ncnc3c(-c4cc(C#N)ccn4)cn(-c4ccccc4F)c23)[C@@H](C)C1 [Compound 212, (S)-2-(5-(2-fluorophenyl)-4-(4-isobutyryl-2-methylpiperazin-1-yl)-5H-pyrrolo[3,2-d]pyrimidin-7-yl)isonicotinonitrile]
EC50 ([1]; Table 3, compounds 201-283): 100 to 500 nM
EC50 ([3]; Table 3, compounds 201-283): 100 to 500 nM

CCN(CC)c1cn(-c2cc(C#N)ccn2)c2ncnc(N3CCN(C(=O)C(C)C)C[C@@H]3C)c12 [Compound 151, (S)-2-(5-(diethylamino)-4-(4-isobutyryl-2-methylpiperazin-1-yl)-7H-pyrrolo[2,3-d]pyrimidin-7-yl)isonicotinonitrile]
EC50 ([1]; Table 3, compounds 101-177): 100 to 500 nM
EC50 ([3]; Table 3, compounds 101-177): 100 to 500 nM

C[C@@H]1CN(c2ncnc3c2c(-c2ccccc2)cn3-c2cc(C#N)ccn2)CCN1C(=O)C1CC1 [Compound 124, (R)-2-(4-(4-(cyclopropanecarbonyl)-3-methylpiperazin-1-yl)-5-phenyl-7H-pyrrolo[2,3-d]pyrimidin-7-yl)isonicotinonitrile]
EC50 ([1]; Table 3, compounds 101-177): 100 to 500 nM
EC50 ([3]; Table 3, compounds 101-177): 100 to 500 nM

Cc1nccnc1-c1cn(-c2cccc(Cl)c2)c2ncnc(N3C[C@@H](C)N(C(=O)C(C)C)C[C@@H]3C)c12 [Compound 175, 1-((2R,5S)-4-(7-(3-chlorophenyl)-5-(3-methylpyrazin-2-yl)-7H-pyrrolo[2,3-d]pyrimidin-4-yl)-2,5-dimethylpiperazin-1-yl)-2-methylpropan-1-one]
EC50 ([1]; Table 3, compounds 101-177): > 2000 nM
EC50 ([3]; Table 3, compounds 101-177): 500 to 2000 nM

COC1(C(=O)N2CCN(c3ncnc4c3c(-c3ccccc3F)cn4-c3cc(C#N)ccn3)[C@@H](C)C2)CC1 [Compound 243, (S)-2-(5-(2-fluorophenyl)-4-(4-(1-methoxycyclopropane-1-carbonyl)-2-methylpiperazin-1-yl)-7H-pyrrolo[2,3-d]pyrimidin-7-yl)isonicotinonitrile]
EC50 ([1]; Table 3, compounds 201-283): 100 to 500 nM
EC50 ([3]; Table 3, compounds 201-283): < 100 nM

COC(C)(C)C(=O)N1CCN(c2ncnc3c2c(C2CC2)cn3-c2cc(C#N)ccn2)[C@@H](C)C1 [Compound 241, (S)-2-(5-cyclopropyl-4-(4-(2-methoxy-2-methylpropanoyl)-2-methylpiperazin-1-yl)-7H-pyrrolo[2,3-d]pyrimidin-7-yl)isonicotinonitrile]
EC50 ([1]; Table 3, compounds 201-283): < 100 nM
EC50 ([3]; Table 3, compounds 201-283): < 100 nM

COC(C)(C)C(=O)N1CCN(c2ncnc3c2c(C(F)(F)F)cn3-c2cc(C#N)ccn2)[C@@H](C)C1 [Compound 210, (S)-2-(4-(4-(2-methoxy-2-methylpropanoyl)-2-methylpiperazin-1-yl)-5-(trifluoromethyl)-7H-pyrrolo[2,3-d]pyrimidin-7-yl)isonicotinonitrile]
EC50 ([1]; Table 3, compounds 201-283): 500 to 2000 nM
EC50 ([3]; Table 3, compounds 201-283): 100 to 500 nM

[2H]C([2H])([2H])C(C(=O)N1C[C@H](C)N(c2ncnc3c2c(-c2ccccc2F)cn3-c2cc(C#N)ccn2)C[C@H]1C)C([2H])([2H])[2H] (single isomer, unassigned) [Compound 234]
EC50 ([1]; Table 3, compounds 201-283): < 100 nM
EC50 ([2]; Table 3, compounds 201-283): 100 to 500 nM

CC(C)C(=O)N1CCN(c2ncnc3c(-c4cc(C#N)ccn4)cn(-c4ccccn4)c23)[C@@H](C)C1 [Compound 211, (S)-2-(4-(4-isobutyryl-2-methylpiperazin-1-yl)-5-(pyridin-2-yl)-5H-pyrrolo[3,2-d]pyrimidin-7-yl)isonicotinonitrile]
EC50 ([1]; Table 3, compounds 201-283): > 2000 nM
EC50 ([3]; Table 3, compounds 201-283): > 2000 nM

CC(C)C(=O)N1CC2(CCN(c3ncnc4c3c(-c3ccccc3F)cn4-c3cc(C#N)ccn3)C2)C1 [Compound 101, 2-(5-(2-fluorophenyl)-4-(2-isobutyryl-2,6-diazaspiro[3.4]octan-6-yl)-7H-pyrrolo[2,3-d]pyrimidin-7-yl)isonicotinonitrile]
EC50 ([1]; Table 3, compounds 101-177): 500 to 2000 nM
EC50 ([3]; Table 3, compounds 101-177): > 2000 nM

CC(C)C(=O)N1CCN(c2ncnc3c2c(-c2ccccn2)cn3-c2cc(C#N)ccn2)[C@@H](C)C1 [Compound 116, (S)-2-(4-(4-isobutyryl-2-methylpiperazin-1-yl)-5-(pyridin-2-yl)-7H-pyrrolo[2,3-d]pyrimidin-7-yl)isonicotinonitrile]
EC50 ([1]; Table 3, compounds 101-177): 500 to 2000 nM
EC50 ([3]; Table 3, compounds 101-177): 500 to 2000 nM

C[C@@H]1CN(c2ncnc3c2c(C2CC2)cn3-c2cc(C#N)ccn2)CCN1C(=O)C1(F)CC1 [Compound 129, (R)-2-(5-cyclopropyl-4-(4-(1-fluorocyclopropane-1-carbonyl)-3-methylpiperazin-1-yl)-7H-pyrrolo[2,3-d]pyrimidin-7-yl)isonicotinonitrile]
EC50 ([1]; Table 3, compounds 101-177): 100 to 500 nM
EC50 ([3]; Table 3, compounds 101-177): < 100 nM
